Assay [1] has as its system polymicrobial flora of the oral cavity. In words: Microbicidal activity in human saliva. The class given is cell-based.
Assay [2] relates to bacteria. Particulars: repeated subcultures at one-half MIC; Steinberg et al., 1997; cited from earlier work.

Where no end group is shown, it is not given here.

In the case of RGGLCYCRGRFCVCVGR [native IB-367], the “microbicidal activity in human saliva” value in assay [1] is listed as “retains its microbicidal activity”.

On to “PG-1: protegrin peptide PG-1 (RGGRLCYCRRRFCVCVGR; ends and bridges not checked; cysteine pairing not given here; UniProt P32194 131-148, looked up)”, for which the development of resistance entry in assay [2] is listed as “did not result in the development of resistance”.
